Legend:
[1] = biological target: T1, ATP-dependent translocase ABCB1 (Homo sapiens, UniProt P08183); assay: TP_TRANSPORTER: increase in Doxorubicin intracellular accumulation in MCF-7/Dox cells; type: functional, cell-based
[2] = biological target: T1, ATP-dependent translocase ABCB1; assay: TP_TRANSPORTER: cell accumulation of doxorubicin in MCF-7/Dox cells; type: functional, cell-based

T1 sequence (P08183 whole entry): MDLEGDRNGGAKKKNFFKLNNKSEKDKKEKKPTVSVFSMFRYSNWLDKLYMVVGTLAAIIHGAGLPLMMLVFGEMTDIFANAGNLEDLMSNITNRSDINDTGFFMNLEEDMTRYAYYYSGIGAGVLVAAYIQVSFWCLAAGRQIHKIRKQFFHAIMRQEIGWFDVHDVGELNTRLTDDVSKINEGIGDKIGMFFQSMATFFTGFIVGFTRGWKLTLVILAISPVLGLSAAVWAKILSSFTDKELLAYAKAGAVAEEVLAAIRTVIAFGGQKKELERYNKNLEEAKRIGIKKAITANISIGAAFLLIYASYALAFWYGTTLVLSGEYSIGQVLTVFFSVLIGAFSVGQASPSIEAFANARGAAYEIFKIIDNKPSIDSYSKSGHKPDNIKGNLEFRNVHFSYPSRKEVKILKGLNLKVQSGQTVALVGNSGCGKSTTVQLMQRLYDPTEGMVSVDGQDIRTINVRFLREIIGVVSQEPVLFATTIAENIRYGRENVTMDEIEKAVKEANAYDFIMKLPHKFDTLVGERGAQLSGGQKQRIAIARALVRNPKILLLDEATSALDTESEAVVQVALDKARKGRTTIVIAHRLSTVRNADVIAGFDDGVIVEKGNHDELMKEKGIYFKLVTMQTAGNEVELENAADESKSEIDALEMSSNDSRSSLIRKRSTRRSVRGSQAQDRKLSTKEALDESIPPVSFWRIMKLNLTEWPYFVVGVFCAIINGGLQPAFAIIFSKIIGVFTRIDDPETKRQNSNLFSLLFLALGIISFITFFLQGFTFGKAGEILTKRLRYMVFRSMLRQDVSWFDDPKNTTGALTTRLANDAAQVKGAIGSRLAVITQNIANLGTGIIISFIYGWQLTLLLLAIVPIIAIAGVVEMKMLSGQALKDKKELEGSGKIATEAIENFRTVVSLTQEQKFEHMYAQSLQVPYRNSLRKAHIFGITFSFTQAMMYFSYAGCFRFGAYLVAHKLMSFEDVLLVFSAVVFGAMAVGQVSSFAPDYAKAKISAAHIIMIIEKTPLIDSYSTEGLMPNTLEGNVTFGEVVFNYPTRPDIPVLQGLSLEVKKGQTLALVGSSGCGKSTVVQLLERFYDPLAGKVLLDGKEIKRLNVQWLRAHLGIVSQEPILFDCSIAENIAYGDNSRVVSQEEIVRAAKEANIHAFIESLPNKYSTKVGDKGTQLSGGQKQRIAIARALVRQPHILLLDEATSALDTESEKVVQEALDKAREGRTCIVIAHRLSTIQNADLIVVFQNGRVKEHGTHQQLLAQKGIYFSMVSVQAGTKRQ

## COc1ccc2cc1Oc1ccc(cc1)C[C@@]1(C)c3cc(c(OC)cc3CCN1C)Oc1c(OC)c(OC)c(Br)c3c1[C@](C)(C2)N(C)CC3 [BROMOTETRANDRINE]
[1]
  Activity: inhibitor [+]
[2]
  Activity: inhibitor [+]

Source: ChEMBL document CHEMBL2074364, “Reversal of multidrug resistance of cancer through inhibition of P-glycoprotein by 5-bromotetrandrine” (Cancer Chemother Pharmacol, 2005)
